In US20190083455A1, “METHODS AND COMPOSITIONS FOR THE MODULATION OF BETA-ENDORPHIN LEVELS” (The General Hospital Corporation, priority 2014, published 2019):
Several values for one entry are separate records, joined by “and”; a condition that tells them apart may be missing. Equal entries are not always repeated. Structures can show the parent of a compound that is named as a salt.

Key:
Format in all cases: in vivo
C57Bl/6 mice [1] = experiment: Straub Tail measurement; conditions: 10 mg/kg ip, scored 15 minutes after injection; day 23 of the UV exposure regimen
Protocol: Straub Tail measurement was performed as described (Bilbey et al., 1960). Scoring was on a scale of 0-2 according to the angle of elevation of the tail from the horizontal plane (0=tail relaxed and no elevation; 1=tail is rigid and elevated 1-10° from horizontal; 1.5=11-45° elevation and rigidity at the base of the tail; 2=46-90° elevation and rigidity at the base of the tail). At each time point, each mouse was scored every 10 seconds for 1 minute and the final score was the average of these six values. Mice undergoing the six-week UV exposure regimen or mock treatment were scored prior to the start of the regimen, once per week during the regimen, and once per week for 2 weeks following cessation of UV/mock treatment. On day 23 of the regimen, after weekly Straub Tail scoring, mice were injected (intraperitoneal (ip)) with either 10 mg/kg naloxone hydrochloride (Sigma, St. Louis, Mo.) or saline. Mice underwent Straub Tail scoring again 15 minutes following injection.
Exogenous opioids produce a dose-dependent, μ-opioid receptor-mediated contraction of the sacrococcygeus dorsalis muscle at the tail base in rodents, resulting in rigidity and elevation of the tail, a phenomenon called “Straub Tail” (Bilbey et al., 1960). […]

β-endorphin = experiment: Plasma β-endorphin radioimmunoassay in UV/mock irradiated mice; conditions: mice treated twice a week with Naloxone or Saline; daily UV or Mock irradiation
Excerpt: Mice were dorsally shaved two days prior to the start of radiation exposure, then exposed to 50 mJ/cm^2/day of UVB, an empirically determined sub-erythematic dose, 5 days per week (Monday-Friday) for 6 weeks. If there were patches of fur re-growth, mice were re-shaved once every two weeks.
For blood draws, mice were placed in a standard restrainer and tail vein blood was collected in EDTA microvette tubes containing 0.6TIU aprotinin. Mice underwent blood draws prior to the start of radiation exposure, once per week during the radiation exposure regimen, and once per week for two weeks following cessation of the UV regimen. Blood was drawn in the mornings prior to radiation exposure on Fridays.
Tubes of collected blood were maintained on ice until centrifugation at 3500 RPM for 20 minutes at 4° C. Plasma was isolated and samples were stored at −80° C. until β-endorphin measurement. β-endorphin was quantified by radioimmunoassay (Phoenix Pharmaceuticals, Burlingame, Calif.).

C57Bl/6 mice [2] = experiment: Somatic symptoms of opiate withdrawal after chronic UV exposure; conditions: 2 mg/kg ip after 6 weeks of daily UV exposure; observed 25 minutes
Protocol: Mice that had undergone 6 weeks of daily UV exposure or mock exposure were injected (ip) with either 2 mg/kg naloxone or saline, and signs of opioid withdrawal were tabulated as described (Olson et al., 2006). […] Wet dog shake, teeth chatter, and bouts of grooming were measured as occurrence in each 15-second interval. Individual rearing events were counted. Number of fecal pellets at the end of the 25-minute interval was used to quantify diarrhea.

C57Bl/6 mice [3] = experiment: Analgesic threshold testing (von Frey test and hot plate test) during UV/mock regimen; conditions: 10 mg/kg ip 15 min prior to testing; chronically UV-irradiated mice
Excerpt: Mice underwent mechanical and thermal analgesic testing during UV/mock treatment regimens using the von Frey test (Kwan et al., 2006) and the hot plate test respectively (Mogil et al., 1999). In the von Frey test, mice were placed in individual enclosures on an elevated wire mesh rack and the plantar surface of the left hind paw was serially poked with fibers of increasing tensile strength (10 times per fiber at a rate of 1/second) until a paw withdrawal response was elicited on 2/10 pokes. In the hot plate test, mice were placed on a 52° C. hot plate and time to response (paw flutter, paw licking, jumping) was measured. […]
We developed a UV-exposure mouse model in which dorsally-shaved mice received a dose of 50 mJ/cm^2 of UVB, 5 days per week for 6 weeks, an empirically-derived sub-erythemic dose which is approximately equal to 20-30 minutes of ambient midday sun exposure in Florida during the summer for a fair-skinned person of average tanning ability (Fitzpatrick skin phototypes 2-3) (D'Orazio et al., 2006; Technology-Planning-and-Management-Corporation, 2000; US-EPA, 1994). […] We quantified mechanical and thermal nociceptive thresholds over six weeks of daily UV exposure. Mechanical nociception was measured by the von Frey test (Kwan et al., 2006), which exposes fibers of increasing tensile strength to the plantar paw surface to elicit a paw withdrawal response. […]

K14-e/e and e/e mice = experiment: Naloxone-precipitated symptoms of opiate withdrawal in forskolin plus rolipram treated mice; conditions: individual forskolin plus rolipram treated mice, naloxone 2 mg/kg; for Rearing: 25 min; for Jumping: events in 25 min; for Diarrhea: fecal pellets at 25 min; for Paw Tremor / Teeth Chatter / Wet Dog Shake / oming: occurrence per 15 sec interval over 25 min
Protocol: Female mice were treated with 40 μL of 20%-Forskolin extract daily and 40 μL of rolipram (Sigma) 20 μM in DMSO or vehicle control. Basal blood samples were collected at the beginning of each experiment. After treatment started, blood samples were collected once a week. After 4 weeks of continuous exposure to forskolin and rolipram or vehicle control, mice were injected with saline or naloxone and symptoms of opiate withdrawal were measured for 25 min post injection. Naloxone (St. Luis, Mo.) was diluted in saline at […] and was administrated to mice ˜200 μL, depending on the mass of each mouse (2 mg/kg). Symptoms assigned were wet dog shake (WDS), paw tremor, jumping, bouts of grooming, teeth chatter (TC), rearing and diarrhea. The occurrence in each 15 sec interval of WDS, paw tremor, bouts of grooming and teeth chatter (TC) was used to quantify these parameters. The number of fecal pellets and the individual jumping events at the end of 25 min were quantified for these two factors.
Finally, the functional significance of systemic β-endorphin elevations upon cAMP activation was tested by carrying out behavioral studies on forskolin plus rolipram treated mice.

C=CCN1CC[C@]23c4c5ccc(O)c4O[C@H]2C(=O)CC[C@@]3(O)[C@H]1C5 [naloxone, naloxone hydrochloride]
Straub Tail score (C57Bl/6 mice [1]): reversed the Straub Tail phenotype | plasma β-endorphin (β-endorphin): no significant effect of Naloxone treatment within either group | signs of opioid withdrawal (C57Bl/6 mice [2]): elicited many of the classic murine signs of opioid withdrawal | mechanical nociceptive threshold (von Frey) (C57Bl/6 mice [3]): suppressed the UV-induced increases in mechanical and thermal nociceptive thresholds | thermal nociceptive threshold (hot plate 52° C.) (C57Bl/6 mice [3]): suppressed the UV-induced increases in mechanical and thermal nociceptive thresholds | Rearing (K14-e/e and e/e mice; K14:e/e): 0 | Jumping (K14-e/e and e/e mice; K14:e/e): 0 | Diarrhea (K14-e/e and e/e mice; K14:e/e, hydrochloride): 0 and 1 | Paw Tremor (K14-e/e and e/e mice; K14:e/e, hydrochloride): 0 and 2 | Teeth Chatter (K14-e/e and e/e mice; K14:e/e, hydrochloride): 80 and 107 | Wet Dog Shake (K14-e/e and e/e mice; K14:e/e, hydrochloride): 145 and 135 | oming (K14-e/e and e/e mice; K14:e/e, hydrochloride): 17 and 2 | Rearing (K14-e/e and e/e mice; e/e, hydrochloride): 0 and 18 | Jumping (K14-e/e and e/e mice; e/e): 0 | Diarrhea (K14-e/e and e/e mice; e/e, hydrochloride): 1 and 2 | Paw Tremor (K14-e/e and e/e mice; e/e, hydrochloride): 4 and 34 | Teeth Chatter (K14-e/e and e/e mice; e/e, hydrochloride): 116 and 75 | Wet Dog Shake (K14-e/e and e/e mice; e/e, hydrochloride): 120 and 76 | oming (K14-e/e and e/e mice; e/e, hydrochloride): 13 and 19
